For assay [1], the target named is T1, ROCKII (1-543) (Homo sapiens (Human), UniProt O75116). Nature of the assay: Luciferin-Luciferase Assay (Assay 1). In kind it is biochemical. To be noted: luciferin-luciferase residual ATP; 750 nM ATP, 7.5 nM kinase. As to the method: 1. Luciferin-Luciferase Assay
The activity of ROCKII (1-543) kinase is measured utilizing Cambrex PKLight ATP Detection Reagent, a homogeneous assay technology using luciferin-luciferase to quantify residual ATP. The assay is performed in 384-well low-volume, white, non-binding surface microtiter plates (Corning). The assay buffer is 25 mM HEPES, pH 7.5, 10 mM MgCl2, 50 mM KCl, 0.2% BSA, 0.01% CHAPS, 100 μM Na3VO4 and 0.5 mM DTT. Test compounds, dissolved in neat DMSO at 500 μg/mL, are serially diluted for dose response for a final starting concentration of 3 μg/mL in 1% DMSO of assay buffer. ROCKII (1-543) (62,408 Da) is diluted in assay buffer to a final concentration of 7.5 nM in a total volume of 15 μL. Positive controls are reaction mixtures containing no test compound; negative controls (blanks) are reaction mixtures containing no kinase. After 15 minutes of pre-incubation of the test compounds with the kinase, a mixture of ATP and peptide substrate ([…]) in assay buffer is added to each well for a final concentration of 750 nM ATP and 500 nM peptide, respectively. After 90 minutes of incubation of the kinase reaction at 28° C. temperature, 10 μL of PKLight ATP Detection Reagent (warmed to room temperature previously) is added to each well. The assay plate is incubated at room temperature for additional 15 minutes and then read on an Analyst in luminescence mode. Dose-response experiments for each of the test compounds are conducted in quadruplet. IC50 values of test compounds represent 50% response of the positive control from the dose-response curve.
Target sequence in this assay (O75116 1-543): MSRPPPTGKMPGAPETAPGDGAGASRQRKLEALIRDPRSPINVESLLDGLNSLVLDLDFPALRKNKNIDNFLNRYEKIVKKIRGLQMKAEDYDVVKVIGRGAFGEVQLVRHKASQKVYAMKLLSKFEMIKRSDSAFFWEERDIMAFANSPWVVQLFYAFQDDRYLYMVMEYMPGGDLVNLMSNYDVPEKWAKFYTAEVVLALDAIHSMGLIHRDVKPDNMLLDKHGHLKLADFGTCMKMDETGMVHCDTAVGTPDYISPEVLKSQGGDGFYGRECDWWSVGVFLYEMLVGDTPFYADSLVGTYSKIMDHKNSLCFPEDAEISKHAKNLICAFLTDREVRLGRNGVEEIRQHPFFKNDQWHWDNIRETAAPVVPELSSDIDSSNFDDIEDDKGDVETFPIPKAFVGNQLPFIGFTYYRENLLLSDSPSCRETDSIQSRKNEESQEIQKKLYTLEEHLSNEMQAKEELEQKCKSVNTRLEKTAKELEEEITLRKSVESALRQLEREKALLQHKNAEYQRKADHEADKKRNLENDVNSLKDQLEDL

The target of assay [2] is T1, ROCKII (1-543). Description: IMAP Assay (Assay 2). To be noted: IMAP fluorescence polarization; 100 μM ATP, 1 nM kinase. Type of assay: biochemical. As to the method:
This assay is performed using FAM S6 substrate peptide (Catalogue #R7184) and IMAP FP Screening Express Kit detection reagents from Molecular Devices (Sunnyvale, Calif.) in IMAP kinase reaction buffer (Tris-HCl, pH 7.2, 10 mM MgCl2, 0.05% NaN3, 0.1% phosphate-free BSA) containing 1 mM DTT. Test compounds dissolved in neat DMSO at 0.3 mg/mL are serially diluted 1 to 3 for concentration response in 100% DMSO. The DMSO serial dilutions are further diluted 33.33-fold in kinase reaction buffer, and 10 μL of this buffer dilution is transferred to Corning black 96-well half area NBS plates for a final top concentration of 3 μg/mL in 1% DMSO. 10 μL aliquot of 3 nM ROCKII (1-543) diluted in kinase reaction buffer is added to each assay well for a final concentration of 1 nM kinase. 10 μL of a mixture of 600 nM FAM S6 peptide and 300 μM ATP diluted in kinase reaction buffer is added to each well for a final concentration of 200 nM peptide and 100 μM ATP. The kinase reaction mixture is incubated for 60 minutes at room temperature. Positive controls are reaction mixtures containing no test compound and negative controls (blanks) are reaction mixtures containing no kinase. The kinase reaction is stopped by addition of 60 μL IMAP progressive binding reagent (Catalog #R7284) diluted 400-fold in 1× Binding buffer A. After 30 min of incubation at room temperature, the plates are read for fluorescence polarization on Analyst Plate Reader using Ex 485 nm, Em 530 nm, and FL 505 dichroic minor. The mP signals are converted to percent of control (POC) values using the formula: POC=100*(Signal−BCTRL)÷(PCTRL−BCTRL)
Where Signal is the test well signal, BCTRL is the average of background (negative control) well signals on the plate and PCTRL is the average of positive control well signals on the plate. For the concentration-responsive compounds, POC as a function of test compound concentration is fitted to a 4-parameter logistic equation of the form: Y=A+(B−A)/[1+(x/C)D]
Where A, B, C, and D are fitted parameters (parameter B is fixed at zero POC), and x and y are the independent and dependent variables, respectively. The IC50 is determined as the inflection point parameter, C.
Target sequence in this assay (O75116 1-543, species assumed): as the sequence (O75116 1-543) above
A general note: In fluorescence polarisation assays a small probe gives low polarisation when free and higher when bound to something large.

In US8697911B2, “Rho kinase inhibitors” (Boehringer Ingelheim International GmbH, priority 2010, dated 2014) one finds IC50 data, which are given here for 42 molecules.

With `CN1CCc2nc(NC(=O)c3cccc(CNC(=O)c4csc(-c5cccnc5)n4)c3)sc2C1` [compound 14], the IC50 (usually the midpoint of a concentration-inhibition curve) on ROCKII (1-543) [1] came out at 4.8 nM; on ROCKII (1-543) [2], 7.9 nM.
Taken in the same sequence, the figures for `CN1CCc2nc(NC(=O)c3cccc(CNC(=O)c4cn5ccc(C#N)cc5n4)c3)sc2C1` [compound 66] were 2.5 nM and 12 nM.
The molecule `CN1CCc2ccc(NC(=O)c3cccc(CNC(=O)c4cccc(-n5ccnc5)c4)c3)cc2C1` [compound 186] came in with a half-maximal inhibitory concentration (IC50) on ROCKII (1-543) [1] of 14.5 nM.
The same measure, in the same setting: in the case of `CN1CCc2ccc(NC(=O)c3cccc(CNC(=O)c4ccc(-c5cccnc5)s4)c3)cc2C1` [compound 62, 5-pyridin-3-yl-thiophene-2-carboxylic acid 3-(2-methyl-1,2,3,4-tetrahydro-isoquinolin-7-ylcarbamoyl)-benzylamide] it was 18.5 nM; in that of `CN1CCc2ccc(NC(=O)c3cccc(CNC(=O)c4csc(-c5ccncc5)n4)c3)cc2C1` [compound 33], 33 nM.
Regarding `CN(C)[C@H]1CCc2nc(NC(=O)c3cccc(CNC(=O)c4cn5cc(C#N)ccc5n4)c3)sc2C1` [compound 100], the half-inhibitory concentration (IC50) was found to be 1.7 nM against ROCKII (1-543) [1] and 2.6 nM against ROCKII (1-543) [2].
Taken in the same sequence, the figures for `CN1CCc2ccc(NC(=O)c3cccc(CNC(=O)c4ccc(-n5ccnc5)cc4)c3)cc2C1` [compound 39] were 4.9 nM and 9.9 nM.
Consider `CCn1c(C(=O)NCc2cccc(C(=O)Nc3ccc4c(c3)CN(C)CC4)c2)cc2cc(C#N)ccc21` [compound 102], for which the 50% inhibitory concentration (IC50) against ROCKII (1-543) [1] was determined as 47 nM.
`N[C@H]1CCc2nc(NC(=O)c3cccc(CNC(=O)c4cccc(-c5cccnc5)c4)c3)sc2C1` [compound 42]: the IC50 against ROCKII (1-543) [1] amounted to 1.2 nM; at ROCKII (1-543) [2], 2 nM.
The corresponding values for `N[C@@H]1CCc2nc(NC(=O)c3cccc(CNC(=O)c4cccc(-c5cccnc5)c4)c3)sc2C1` [compound 40] are 1.9 nM and 10 nM.
The corresponding values for `N[C@H]1CCc2nc(NC(=O)c3cccc(CNC(=O)c4ccc(-c5csnn5)cc4)c3)sc2C1` [compound 26] are 7.6 nM and 40 nM.
Taken in the same sequence, the figures for `CN1CCc2ccc(NC(=O)c3cccc(CNC(=O)c4ccc(C5=CSNN5)cc4)c3)cc2C1` [compound 31] were 4.6 nM and 4.6 nM.
Regarding `Cc1nnnn1-c1ccc(C(=O)NCc2cccc(C(=O)Nc3nc4c(s3)C[C@@H](N)CC4)c2)cc1` [compound 38], the half-maximal inhibitory concentration (IC50) on ROCKII (1-543) [1] was 1.1 nM; on ROCKII (1-543) [2], 0.67 nM.
On to `Cc1nc(-c2ccncc2)sc1C(=O)NCc1cccc(C(=O)Nc2ccc3c(c2)CN(C)CC3)c1` [compound 95], for which the IC50 at ROCKII (1-543) [1] was 1.4 nM; against ROCKII (1-543) [2], 1.25 nM.
`Cc1ncc(-c2ccc(C(=O)NCc3cccc(C(=O)Nc4ccc5c(c4)CN(C)CC5)c3)s2)o1` [compound 68]: the IC50 on ROCKII (1-543) [1] came to 64.2 nM.
Take `CN1CCc2ccc(NC(=O)c3cccc(CNC(=O)c4cc5cc(C#N)ccc5[nH]4)c3)cc2C1` [compound 80]: the figures for the half-maximal inhibitory concentration (IC50) against ROCKII (1-543) [1] and against ROCKII (1-543) [2] were 1.5 nM and 0.58 nM, respectively.
On ROCKII (1-543) [1], `CN1CCc2ccc(NC(=O)c3cccc(CNC(=O)c4ccc(-c5ccc(N)nc5)s4)c3)cc2C1` [compound 177] returned an IC50 of 68 nM.
At ROCKII (1-543) [1], `CCn1c(C(=O)NCc2cccc(C(=O)Nc3ccc4c(c3)CN(C)CC4)c2)cc2ccc(C#N)cc21` [compound 118] yielded an IC50 of 24 nM.
Regarding `CN1CCc2ccc(NC(=O)c3cccc(CNC(=O)c4cc5cc(C(N)=O)ccc5[nH]4)c3)cc2C1` [compound 86], the IC50 on ROCKII (1-543) [1] was 1.7 nM; against ROCKII (1-543) [2] it was 0.85 nM.
`CCN1C(=O)CSc2ccc(C(=O)NCc3cccc(C(=O)Nc4ccc5c(c4)CN(C)CC5)c3)cc21` [compound 210] gave an IC50 on ROCKII (1-543) [1] of 86 nM.
On to `CN1CCc2nc(NC(=O)c3cccc(CNC(=O)c4nnn(-c5nonc5N)c4-c4ccccc4)c3)sc2C1` [compound 46], for which the IC50 worked out at 1.8 nM against ROCKII (1-543) [1] and 4.9 nM on ROCKII (1-543) [2].
Taken in the same sequence, the figures for `Cc1c(C(=O)NCc2cccc(C(=O)Nc3ccc4c(c3)CN(C)CC4)c2)nnn1-c1nonc1N` [compound 125] were 5.9 nM and 26 nM.
Taken in the same sequence, the figures for `CN1CCc2ccc(NC(=O)c3cccc(CNC(=O)c4cccc(-c5cn[nH]c5)c4)c3)cc2C1` [compound 3] were 4 nM and 5.1 nM.
In turn, `CN1CCc2ccc(NC(=O)c3cccc(CNC(=O)c4ccc5c(c4)CCC(=O)N5)c3)cc2C1` [compound 184] came in with an IC50 at ROCKII (1-543) [1] of 18 nM.
Regarding `Cc1nnnn1-c1ccc(C(=O)NCc2cccc(C(=O)Nc3nc4c(s3)CN(C)CC4)c2)cc1` [compound 8], the IC50 against ROCKII (1-543) [1] worked out at 6 nM; on ROCKII (1-543) [2] it was 9.8 nM.
In turn, `CN1CCc2nc(NC(=O)c3cccc(CNC(=O)c4cn5cc(C#N)ccc5n4)c3)sc2C1` [compound 88] came in with an IC50 on ROCKII (1-543) [1] of 45.7 nM.
Still for that read-out and setting: the value for `Cc1nnnn1-c1ccc(C(=O)NCc2cccc(C(=O)Nc3ccc4c(c3)CN(C)CC4)c2)cc1` [compound 37] was 43.5 nM.
For `CN1CCc2ccc(NC(=O)c3cccc(CNC(=O)c4cc5ccc(C#N)cc5n4C)c3)cc2C1` [compound 92], the results for the concentration for half-maximal inhibition (IC50) at ROCKII (1-543) [1] and at ROCKII (1-543) [2] were 4.1 nM and 17 nM, respectively.
The corresponding values for `Cc1nnnn1-c1ccc(C(=O)NCc2cccc(C(=O)Nc3nc4c(s3)C[C@H](N)CC4)c2)cc1` [compound 36] are 1.4 nM and 3 nM.
Taken in the same sequence, the figures for `CN1CCc2ccc(NC(=O)c3cccc(CNC(=O)c4ccc(-c5cnco5)cc4)c3)cc2C1` [compound 49] were 2.6 nM and 26 nM.
`CN1CCc2ccc(NC(=O)c3cccc(CNC(=O)c4ccc5c(c4)OCC(=O)N5)c3)cc2C1` [compound 182] came in with an IC50 at ROCKII (1-543) [1] of 81 nM. In other words, the double-digit nanomolar range.
For the molecule `Cc1sc(-c2ccncc2)nc1C(=O)NCc1cccc(C(=O)Nc2nc3c(s2)CN(C)CC3)c1` [compound 58], the IC50 against ROCKII (1-543) [1] was found to be 2.1 nM; against ROCKII (1-543) [2] it was 1.2 nM.
Taken in the same sequence, the figures for `N[C@@H]1CCc2nc(NC(=O)c3cccc(CNC(=O)c4cccc(-c5cn[nH]c5)c4)c3)sc2C1` [compound 28] were 1.1 nM and 0.45 nM.
On ROCKII (1-543) [1], `CN1CCc2ccc(NC(=O)c3cccc(CNC(=O)c4cccc(-c5ccncc5)c4)c3)cc2C1` [compound 69] registered an IC50 of 44.5 nM.
Same read-out and setting: in the case of `CN1CCc2ccc(NC(=O)c3cccc(CNC(=O)c4ccc5[nH]c(=O)ccc5c4)c3)cc2C1` [compound 175] it was 22.5 nM.
Same read-out and setting: the value for `CN1CCc2ccc(NC(=O)c3cccc(CNC(=O)c4cc(-c5cccnc5)[nH]n4)c3)cc2C1` [compound 188] was 91.5 nM; that for `N[C@@H]1CCc2nc(NC(=O)c3cccc(CNC(=O)c4ccc(-c5csnn5)cc4)c3)sc2C1` [compound 24] was 14.3 nM.
`Cc1ncc(-c2ccc(C(=O)NCc3cccc(C(=O)Nc4nc5c(s4)CN(C)CC5)c3)s2)o1` [compound 116] displayed a concentration for half-maximal inhibition (IC50) at ROCKII (1-543) [1] of 14.5 nM.
The same measure, in the same setting: in the case of `CN1CCc2ccc(NC(=O)c3cccc(CNC(=O)c4cc5cccc(O)c5cc4O)c3)cc2C1` [compound 133] it was 80 nM.
Same read-out and setting: in the case of `CN1CCc2ccc(NC(=O)c3cccc(CNC(=O)c4cn5cc(C#N)ccc5n4)c3)cc2C1` [compound 48] it was 35.5 nM; in that of `CN1CCc2ccc(NC(=O)c3cccc(CNC(=O)c4cn5ccc(C#N)cc5n4)c3)cc2C1` [compound 18], 19.3 nM; in that of `Cc1nc2cnccc2n1-c1ccc(C(=O)NCc2cccc(C(=O)Nc3ccc4c(c3)CN(C)CC4)c2)cc1` [compound 198], 38 nM.
